In US20200262864A1, “DEUTERATED FORMS OF AMINOSTEROLS AND METHODS OF USING THE SAME” (Enterin, Inc., priority 2019, published 2020):

Legend:
[1] = biological target: T1, Protein Tyrosine Phosphatase 1B (PTP1B), human truncated form (1-321) (Homo sapiens, UniProt P18031); test: Inhibition of PTP1B, 10-dose IC50 mode, fluorescence readout of enzyme activity; format: biochemical; settings: for HILLSLOPE: 10-dose curve
T1 construct: The enzyme was the human truncated form (1-321), recombinantly produced in E. coli; host or cells: E. coli
T1 sequence (P18031 1-321): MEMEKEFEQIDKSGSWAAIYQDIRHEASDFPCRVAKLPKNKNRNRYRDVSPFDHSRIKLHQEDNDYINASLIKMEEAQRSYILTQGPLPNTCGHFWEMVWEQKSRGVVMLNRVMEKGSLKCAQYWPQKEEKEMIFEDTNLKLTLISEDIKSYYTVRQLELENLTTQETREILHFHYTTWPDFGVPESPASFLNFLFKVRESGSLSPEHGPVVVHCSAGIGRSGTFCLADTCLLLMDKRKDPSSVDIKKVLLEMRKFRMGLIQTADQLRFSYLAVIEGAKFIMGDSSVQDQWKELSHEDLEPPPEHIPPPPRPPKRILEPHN
Description: The enzyme was the human truncated form (1-321), recombinantly produced in E. coli. Fluorescence was measured to monitor enzyme activity.

[2] = Pharmacological activity in mice as weight loss agent; format: in vivo
Description: Food was provided ad lib.

[3] = Phase 2 trial of oral squalamine (ENT-01): pharmacokinetics; format: in vivo, human; settings: patients of Example 8
Description: PK data were collected on the 10 patients enrolled in Stage 1 and 10 patients enrolled in Stage 2 to determine the extent of systemic absorption. In Stage 1, PK data were obtained at each visit, pre-medication, at 1, 2, 4, 8 and 24 hours (Table 9). In Stage 2, PK was measured on days 1 and 6 of the randomization period pre-medication, at 1, 2, 4 and 8 hours (Table 10).
The mean Cmax, Tmax and T1/2 and AUC of the squalamine ion following squalamine (ENT-01) oral dosing for Stage 1 patients. The PK analyses are only approximate, as the lower limit of the validated concentration range was 10 ng/ml; most of the measured concentrations fell below that value. The mean Cmax, Tmax and T1/2 and AUC of the squalamine ion following squalamine (ENT-01) oral dosing for Stage 2 patients. The PK analyses are only approximate, as the lower limit of the validated concentration range was 0.5 ng/ml.

[4] = as the dilactate salt; cited from earlier work
[5] = single and repeat intravenous administration, dilactate salt, alone or in combination; cited from earlier work
C. elegans model of PD = settings: cited from earlier work
mouse models of PD = settings: several mouse models of PD; cited from earlier work
[6] = i.p. 10 mg/kg on days 0, 2, 4, 6, 8 and 10, N=3

SMILES: [2H]C([2H])([2H])C([2H])(C(CC[C@@H](C)[C@H]1CCC2C3C(CC[C@@]21C)[C@@]1(C)CC[C@H](NCCCNCCCCNCCCN)C[C@@H]1C[C@H]3O)OS(=O)(=O)O)C([2H])([2H])[2H] (some centres unmarked) [Compound D7-1436]
- HILLSLOPE [1]: −2.50
- % Activity ([1]; Conc 1.00E−04 M): −0.37%
- Slope (signal/min) ([1]; Conc 1.00E−04 M): −161 signal/min
- % Activity ([1]; Conc 1.11E−05 M): −0.74%
- Slope (signal/min) ([1]; Conc 1.11E−05 M): −319 signal/min
- % Activity ([1]; Conc 1.23E−06 M): 80.63%
- Slope (signal/min) ([1]; Conc 1.23E−06 M): 34760 signal/min
- % Activity ([1]; Conc 1.37E−07 M): 93.14%
- Slope (signal/min) ([1]; Conc 1.37E−07 M): 40150 signal/min
- % Activity ([1]; Conc 1.52E−08 M): 101.65%
- Slope (signal/min) ([1]; Conc 1.52E−08 M): 43819 signal/min
- % Activity ([1]; Conc 3.33E−05 M): −0.84%
- Slope (signal/min) ([1]; Conc 3.33E−05 M): −362 signal/min
- % Activity ([1]; Conc 3.70E−06 M): 19.55%
- Slope (signal/min) ([1]; Conc 3.70E−06 M): 8429 signal/min
- % Activity ([1]; Conc 4.12E−07 M): 96.86%
- Slope (signal/min) ([1]; Conc 4.12E−07 M): 41755 signal/min
- % Activity ([1]; Conc 4.57E−08 M): 101.36%
- Slope (signal/min) ([1]; Conc 4.57E−08 M): 43697 signal/min
- % Activity ([1]; Conc 5.08E−09 M): 103.59%
- Slope (signal/min) ([1]; Conc 5.08E−09 M): 44655 signal/min
- body weight reached ([2]; i.p. 10 mg/kg on days 0, 2, 4, 6, 8 and 10, by day 16, N=3): about 45 % of the starting weight
- condition of the animals ([2]; i.p. 10 mg/kg on days 0, 2, 4, 6, 8 and 10, day 16): appeared moribund and were euthanized
- potency as compared with MSI-1436 ([2]; weight loss, i.p. 10 mg/kg): increased potency

SMILES: CC(C)[C@@H](CC[C@@H](C)C1CCC2C3C(CC[C@@]21C)[C@@]1(C)CC[C@H](NCCCNCCCCNCCCN)C[C@@H]1C[C@H]3O)OS(=O)(=O)O (some centres unmarked) [MSI-1436, reference compound]
- HILLSLOPE [1]: −2.19
- % Activity ([1]; Conc 1.00E−04 M): −0.16%
- Slope (signal/min) ([1]; Conc 1.00E−04 M): −68 signal/min
- % Activity ([1]; Conc 1.11E−05 M): 0.68%
- Slope (signal/min) ([1]; Conc 1.11E−05 M): 292 signal/min
- Slope (signal/min) ([1]; Conc 1.23E−06 M): 37260 signal/min
- Slope (signal/min) ([1]; Conc 1.37E−07 M): 40137 signal/min
- Slope (signal/min) ([1]; Conc 1.52E−08 M): 44021 signal/min
- Slope (signal/min) ([1]; Conc 3.33E−05 M): −440 signal/min
- Slope (signal/min) ([1]; Conc 3.70E−06 M): 16431 signal/min
- Slope (signal/min) ([1]; Conc 4.12E−07 M): 39959 signal/min
- Slope (signal/min) ([1]; Conc 4.57E−08 M): 42717 signal/min
- Slope (signal/min) ([1]; Conc 5.08E−09 M): 43513 signal/min
- nadir in weight [2, 6]: ~16 days
- recovery to starting weight [2, 6]: 45 days

SMILES: CC(C)[C@@H](CC[C@@H](C)C1CCC2C3C(CC[C@@]21C)[C@@]1(C)CC[C@H](NCCCNCCCCN)C[C@@H]1C[C@H]3O)OS(=O)(=O)O (stereo partly drawn) [squalamine, 3 beta-N-1-(N-[3-(4-aminobutyl)]-1,3-diaminopropane)-7 alpha,24 zeta-dihydroxy-5 alpha-cholestane 24-sulfate]
- systemic absorption following oral administration [3]: not significantly absorbed
- water solubility [4]: highly water soluble
- well tolerated dose [5]: at least 300 mg/m^2
- muscle paralysis (C. elegans model of PD): complete reversal
- gastrointestinal dysmotility (mouse models of PD): reverse gastrointestinal dysmotility
